Test results taken from article PMC11945201, “Enhancing the Oral Bioavailability of Glutathione Using Innovative Analogue Approaches” (Pharmaceutics, 2025).

Assays:
[1] = system: glutathione S-transferase (GST); assay: Glutathione S-transferase assay (CDNB conjugation, absorbance 340 nm); assay type: biochemical, equine; conditions: for GST Activity > 50%: yes/no, compared to GSH, more than 50% considered retaining GST activity
Protocol: The degree of conjugation of GSH or novel compounds to a substrate catalysed by GST can be monitored […] by conjugation with the substrate 1-chloro-2,4-dinotrobenzene (CDNB) to a thiol group. Successful conjugation results in the formation of a S-DNB conjugate, which strongly absorbs at 340 nm.
A stock solution of GSH and novel compounds (0.0315 mmolL^−1) were prepared. GSH or novel compounds (26 µL) were added to a mixture of pH = 7.4 DPBS (170 µL), CDNB (2 µL, 100 mmolL^−1), and GST enzyme (2 µL, 25 UmL^−1) to initiate the reaction. The rate of increase in absorbance at 340 nm was monitored every minute over a 10 min period. The rate of increase in absorbance at 340 nm was calculated by the following equation (Equation (1)), where ΔA340 is the change in absorption at 340 nm per minute:(1) ΔA340=A340(final)–A340(initial)/t.
The rate of increase in absorption at 340 nm was correlated to the specific activity of GST using the following equation (Equation (2)):(2) ΔA340×V/εmM ×Venz=Specific activity of GST, where the extinction coefficient εmM for a 96-well plate of a path length of 0.5 cm is 5.3 mmolL^−1cm^−1; Venz is the volume of the GST enzyme sample used (2 µL); and V is the total volume used ([…]). […] A GST activity more than 50% was considered as retaining GST activity.

[2] = system: Fibroblast cells; assay: UV rescue of UVA-irradiated fibroblast cells (MTT); assay type: cell-based; conditions: for % Cell Viability (with UV): UVA 1 h, then peptide 0.0325 mmolL^−1, 24 h
Protocol: Fibroblast cells were seeded into 96-well plates at a density of 10,000 cells per well determined by cell counting. Cells were allowed to settle and attach for 24 h before the addition of peptides. The supernatant in each well was discarded, and the attached cells were washed using serum-free DMEM twice. One group of cells was exposed to UVA under a UV lamp for 1 h. A second group of cells was not exposed to UV irradiation. The supernatant was removed from each well of both groups and replaced with peptide (100 μL, 0.0325 mmolL^−1), which was then dissolved in Fluorobite^TM DMEM. Each plate, including 2 wells of both groups was also incubated with serum-free DMEM (positive control) and 2% Triton-X (negative control) for 24 h. The supernatant in each well of both groups was then discarded and the cells washed using PBS. MTT (100 μL, 6 mmolL^−1) that was dissolved in HBSS was then added to each well and incubated for 2 h for MTT conversion into formazan. The supernatant was then discarded, and the cells were washed using PBS to remove any residual MTT and formazan that were not attached to the cellular mitochondria. Formazan was dissolved in DMSO (50 μL), and the absorbance was measured on a microplate reader at a wavelength of 570 nm.

[3] = system: glutathione reductase (GR) and glutathione peroxidase (GPx); assay: Glutathione reductase and glutathione peroxidase coupled assay (NADPH, 340 nm); assay type: biochemical, yeast (GR), bovine (GPx); conditions: for GT/GPx Activity > 50%: yes/no, more than 50% considered retaining GR and GPx activity
Protocol: The activity of GR can be measured by monitoring the rate of decrease in absorbance of its substrate, NADPH, which absorbs light of 340 nm in the presence of a second substrate, i.e., oxidised GSH. […] In the presence of peroxides, reduced GSH can be oxidised by the enzyme GPx while reducing the peroxide. […] The NADPH solution (10 μL, 5 mmolL^−1), GPx enzyme solution (10 μL, 0.25 UmL^−1), and GR enzyme solution (10 μL, 10 UmL^−1) were also added to the reaction mixture. The reaction was initiated by the addition of tBu-OOH (2 μL, 30 mmolL^−1), and the decrease in absorbance at 340 nm was recorded by a microplate reader every 10 secs for one minute. […] A GR and GPx activity more than 50% was considered as retaining GR and GPx activity.

[4] = system: Caco-2, Fibroblast, and HT29-MTX-E12 cells; assay: Cytotoxicity by MTT cell viability; assay type: cell-based; conditions: for IC50: Homo sapiens, 24 h incubation, cell line not split in table (Caco-2, Fibroblast, HT29-MTX-E12), highest usable concentration 3.25 mmolL^−1
Protocol: All cell culture studies were conducted in aseptic conditions. Incubation was maintained at an atmosphere of 37.0 °C, 5% CO2, and 95% relative humidity. The caco-2 cells were grown in complete Dulbecco’s modified Eagle’s medium (DMEM), which was prepared by adding 10% foetal bovine serum (FBS), 1% penicillin-streptomycin (P-S), and 1% non-essential amino acids (NEAA) to sterile DMEM. Cells were cultured in T-25 and T-75 tissue culture flasks, and the medium was exchanged every 3 days until 90% confluence was reached. Cells were detached and subcultured with 0.25% Trypsin-EDTA. The suspended cell concentration was determined by cell counting.
Cytotoxicity was measured by measuring cell viability using MTT. Then, 90% confluent cells were detached by 0.25% trypsin-EDTA, which were then counted and seeded into sterile 96-well plates. Caco-2 cells were seeded into 96-well plates at a density of 100,000 cells per well and incubated for 24 h prior to the experiment. Fibroblast cells were seeded into 96-well plates at a density of 10,000 cells per well and incubated for 24 h prior to the experiment. HT-29 cells were seeded into 96-well plates at a density of 10,000 cells per well and incubated for 24 h prior to the experiment. The supernatant in each well were discarded and the attached cells were washed using serum-free Fluorobite^TM DMEM twice to remove any phenol red. The peptide, at concentrations of 10 mgmL^−1, 1 mgmL^−1, 0.1 mgmL^−1, 0.01 mgmL^−1, 0.001 mgmL^−1, and 0.0001 mgmL^−1 were dissolved in serum-free Fluorobite^TM DMEM. The total volume of sample in each well used was 100 μL. The cells were incubated with the peptide for 24 h. Cells were also incubated with serum-free DMEM (positive control) and 2% Triton-X (negative control) for 24 h. The supernatant in each well was then discarded and washed using serum-free Fluorobite^TM DMEM. MTT (100 μL, 1.2 mmolL^−1) dissolved in Fluorobite^TM DMEM was then added to each well and incubated for 2 h for MTT conversion into formazan. The supernatant was then discarded, and the cells were washed using Fluorobite^TM DMEM to remove any residual MTT and formazan that were not attached to cellular mitochondria. Formazan was dissolved in dimethyl sulfoxide (DMSO) (50 μL), and the absorbance was measured on a microplate reader at a wavelength of 570 nm. Cell viability was expressed as a percentage of the positive control and calculated as follows (where Aexp is the absorbance at 570 nm of the experimental group, Aneg is the absorbance at 570 nm of the negative control, and Acon is the cell viability of the positive control): Cell viability = (Aexp − Aneg)/(Acon − Aneg).

| SMILES | activity/efficacy with GST enzyme (in words) ([1]; qualitative analysis) | GST Activity > 50% [1] | cell viability versus untreated groups (in words) ([2]; UV rescue) | % Cell Viability (with UV) ([2]; mean ± SD, n = 6) | activity with GPx and GR enzymes (in words) ([3]; qualitative analysis) | GT/GPx Activity > 50% [3] | IC50 [4] | cytotoxicity (in words) ([4]; up to 3.25 mmolL^−1) | % Cell Viability (no UV) ([2]; peptide 0.0325 mmolL^−1, 24 h, no UV, mean ± SD, n = 6) |
| --- | --- | --- | --- | --- | --- | --- | --- | --- | --- |
| CN(C(=O)CC[C@H](N)C(=O)O)[C@@H](CS)C(=O)NCC(=O)O [Compound 1.70] | did not | ✔ (✔: yes) | significantly higher cell viability than the untreated groups | 112.4 ± 9.7% | retention of activity | ✔ (✔: yes) | > 3.25 mM | no cytotoxicity detected | – |
| N[C@@H](CCC(=O)N[C@@H](CS)C(=O)NCC(=O)O)C(=O)O [GSH, Glutathione] | – | ✔ (✔: yes) | – | 87.7 ± 4.5% | – | ✔ (✔: yes) | > 3.25 mM | – | 100.0 ± 8.1% |
